# ChEMBL document CHEMBL1151500, “Inhibition of calpain by peptidyl heterocycles” (Bioorg Med Chem Lett, 1996)
# Molecular target: T1, Calpain-1 catalytic subunit (Homo sapiens) (UniProt P07384)
# T1 sequence (whole entry): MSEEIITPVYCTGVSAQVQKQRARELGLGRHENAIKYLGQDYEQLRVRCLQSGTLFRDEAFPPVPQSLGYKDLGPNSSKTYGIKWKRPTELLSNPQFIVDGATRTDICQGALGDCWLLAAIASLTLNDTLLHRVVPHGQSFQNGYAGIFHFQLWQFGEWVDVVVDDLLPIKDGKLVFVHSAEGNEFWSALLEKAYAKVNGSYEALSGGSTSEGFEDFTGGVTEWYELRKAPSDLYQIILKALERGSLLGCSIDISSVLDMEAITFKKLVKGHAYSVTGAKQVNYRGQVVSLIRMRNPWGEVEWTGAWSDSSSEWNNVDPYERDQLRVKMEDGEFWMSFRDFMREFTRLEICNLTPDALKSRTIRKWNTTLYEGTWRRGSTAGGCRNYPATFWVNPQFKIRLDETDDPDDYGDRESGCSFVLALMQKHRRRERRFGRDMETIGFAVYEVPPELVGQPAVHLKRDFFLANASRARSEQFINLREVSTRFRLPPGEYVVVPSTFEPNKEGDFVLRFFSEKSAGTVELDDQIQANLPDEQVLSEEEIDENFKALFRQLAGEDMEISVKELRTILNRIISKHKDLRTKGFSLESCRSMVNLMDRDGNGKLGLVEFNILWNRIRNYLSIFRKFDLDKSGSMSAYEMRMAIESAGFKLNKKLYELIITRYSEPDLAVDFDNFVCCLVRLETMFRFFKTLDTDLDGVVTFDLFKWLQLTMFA
# Test: Inhibitory activity against human recombinant Calpain 1 at a concentration of 10 uM
row,Compound,inhibition [%]
1,CC(C)C[C@H](NC(=O)OC(C)(C)C)C(=O)N[C@@H](CC(C)C)C(=O)c1ncc[nH]1,77
2,CC(C)C[C@H](NC(=O)OCc1ccccc1)C(=O)N[C@@H](CC(C)C)C(=O)C1N=NN=N1,11
3,CC(C)C[C@H](NC(=O)OCc1ccccc1)C(=O)N[C@@H](CC(C)C)C(=O)N[C@@H](Cc1ccccc1)C(=O)c1nccs1,54

# More lines, now with the values ahead:
row,inhibition [%],Compound
1,0,CC(C)C[C@H](NC(=O)OCc1ccccc1)C(=O)N[C@@H](CC(C)C)C(=O)c1ncc[nH]1
2,39,CC(C)C[C@H](NC(=O)OCc1ccccc1)C(=O)N[C@@H](CC(C)C)C(=O)c1nccn1Cc1ccccc1
3,0,CC(C)C[C@H](NC(=O)OCc1ccccc1)C(=O)N[C@@H](CC(C)C)C(=O)c1nccn1COCC[Si](C)(C)C
